Laboratory results reported in patent US20110183904A1, “METHODS AND COMPOSITIONS FOR ALTERING BEHAVIOR ASSOCIATED WITH AUTISM SPECTRUM DISORDER” (The Children's Mercy Hospital, priority 2008, published 2011).
Values joined by “and” are separate entries in the source; they are usually repeats but may differ in a detail not shown here. Equal values may be shown once. “Also recorded” adds a separate entry of the source.

How the values were obtained:
[1] = test system: Gαs protein in PBMCs; experiment: Gαs protein expression in PBMCs exposed to vasopressin (immunoblot); type: cell-based, human
Description: (§1) Membrane preparation for membrane-associated proteins. For protein studies, PBMC's were manipulated at 4° C., as previously described in Example 4. PBMC's were individually homogenized (1:30, wt/vol) in ice-cold 0.25 M sucrose and 50 mM Tris-HCL, (pH 7.6) in a Dounce homogenizer, centrifuged twice at 800×g for 5 min before centrifugation of the supernatants at 30,000×g for 60 min. The pellet was resuspended in assay buffer and used directly in the binding assay. Protein concentration was determined by BCA protein assay kit (Pierce, Rockford, Ill.) using bovine serum albumin (BSA) as a standard.
(§2) Immunoblot analysis for membrane-associated proteins. Total membrane proteins were prepared as for receptor assays above. Samples were electrophoresed in 12% Tris-HCl resolving gels and transferred to 0.45 μm nitrocellulose membranes (Bio-Rad, Hercules, Calif.) by electroblotting. […] After three washes in TBST, membranes were incubated for 1 h in TBST and 1% non fat dry milk with horseradish peroxidase conjugated 2° antibodies (Jackson Immunoresearch, West Grove, Pa.). Bands were visualized by exposure of the membranes to autoradiographic film (MidSci, St. Louis, Mo.). The membranes were then stripped with Restore™ Western Blot Stripping Buffer (Pierce, Rockford Ill.) for 30 min at 37° C. and reprobed for actin protein as an internal control. The bands were quantified using a densitometer (GE Healthcare, Piscataway, N.J.).
(§3) Specific G protein antibodies. Specific Gαs and Gαq/11 antibodies made in rabbit without cross reactivity to other G proteins were used at a 1:500 dilution and originated from Santa Cruz Biotechnology (Santa Cruz, Calif.).

[2] = test system: Gαq mRNA in PBMCs; experiment: Gαq mRNA in PBMCs exposed to vasopressin (real-time RT-PCR); type: cell-based, human
Description: (§4) Samples were taken from the patients, as described in Example 1, and mRNA was isolated from cells exposed to vasopressin and analyzed for amount of mRNA expressing Gαs and Gαq.
(§5) Venipuncture. 3 ml/kg of blood (to a maximum of 40 cc) were drawn after a 2 hour fast between 10 am and 12 am as previously described (Modahl). EMLA (topical lidocaine cream) was placed on the antecubital region of both arms and covered with tegaderm prior to blood draw. 10 ml of blood was collected in heparinized tubes on ice until processing within 15 minutes. This aliquot was centrifuged at 4° C. at 3000 g for 20 minutes, after which the plasma was stored in 1 ml aliquots at −80° C. until further processing, at which time it was transported on dry ice to the laboratory. The remaining blood (up to 30 cc) was placed on ice and transported within 30 minutes of blood draw to the same lab. PBMC isolation, hormone treatment and cell culture. PBMCs were isolated from heparinized blood using Histopaque 1077 (Sigma-Aldrich, St. Louis, Mo.). Briefly, 5 ml of blood was diluted 1:1 in PBS and carefully layered onto 3 ml of Histopaque 1077 in a 50 ml conical centrifuge tube. Tubes were centrifuged at 400 g for 30 min at RT. The buffy coat was removed from the tube and washed three times in complete RPMI without phenol red. Cell counts and viability were determined using Trypan blue. Cell viability was >95%. Resultant PBMC's were suspended in complete RPMI with 10% charcoal stripped, dilapidated fetal calf serum (FCS) (Invitrogen, Carlsbad, Calif.) and added in 1 ml aliquots to 12 well plate with vehicle and vasopressin (10−8M) in RPMI+10% charcoal stripped, dilapidated FCS. Cells were incubated overnight (18-24 hr) before wells were harvested and rinsed. Cell suspensions were centrifuged at 500 g for 10 min at RT, and supernatant was aspirated. Buffer RLT Plus from the RNeasy Mini Plus Kit (QIAgen, Valencia, Calif.) was added to the cell pellets before vortexing to lyse cells. Samples were stored at −80° C. before RNA purification and isolation.
(§6) RNA isolation and quantitation. Samples were thawed, vortexed, and placed in QIAshredder columns. Columns were centrifuged for 2 min at 15000 g. The homogenized lysate was transferred to a gDNA Eliminator spin column and centrifuged for 30 sec at 9000 g. Equal volumes of 70% ethanol were added to the eluent. The mixture was transferred to RNeasy spin columns and centrifuged for 15 sec at 9000 g. Columns were washed with Buffer RW1 and the Buffer RPE, centrifuging for 15 sec at 9000 g, each time discarding the eluent. Buffer RPE was again added and columns centrifuged for 2 min at 9000 g to dry the column. Columns were then centrifuged for 1 min at 15000 g. RNA was eluted with the addition of Nuclease-free water and spun for 1 min at 9000 g. RNA was examined by spectrophotometry and quantitated using the Ribogreen assay (Invitrogen, Carlsbad, Calif.). Samples were diluted 1:200. Standards of 0, 20, 100, 500, and 1000 ng/ml were made from E. coli ribosomal RNA in TE buffer. Ribogreen reagent (1:200) was added to samples and standards, and samples were read on a Bio-Tek FLx800 fluorescent plate reader. RNA was diluted in nuclease-free water to a final concentration of 150 ng/ml cDNA.
(§7) cDNA construction and one-step real-time RT-PCR. Reverse transcription was performed using the SuperScript II Reverse Transcription Kit (Invitrogen, Carlsbad, Calif.). […]

[3] = test system: Gαs mRNA in PBMCs; experiment: Gαs mRNA in PBMCs exposed to vasopressin (real-time RT-PCR); type: cell-based, human
Description: as §4, §5, §6, §7

[4] = test system: Gαq protein in PBMCs; experiment: Gαq protein expression in PBMCs exposed to vasopressin (immunoblot); type: cell-based, human; design: Gαq protein expression, Control Vasopressin / Gαq protein expression, Average, Control Vasopressin: scale not given here
Description: as §1, §2, §3

[5] = test system: Gαs in PBMCs; settings: bipolar illness and schizophrenia; cited from earlier work
[6] = ASD versus without ASD, both exposed to vasopressin
[7] = PBMCs of individual children with ASD, immunoblot densitometry
[8] = PBMCs of individual control children, immunoblot densitometry
[9] = PBMCs of individual children with ASD, vasopressin 10−8M, 18-24 hr
[10] = PBMCs of individual control children, vasopressin 10−8M, 18-24 hr
[11] = average of autism group, vasopressin 10−8M
[12] = average of control group, vasopressin 10−8M

SMILES: NC(=O)CC[C@@H]1NC(=O)[C@H](Cc2ccccc2)NC(=O)[C@H](Cc2ccc(O)cc2)NC(=O)[C@@H](N)CSSC[C@@H](C(=O)N2CCC[C@H]2C(=O)N[C@@H](CCCN=C(N)N)C(=O)NCC(N)=O)NC(=O)[C@H](CC(N)=O)NC1=O [Vasopressin, Arginine vasopressin]
- Gαs protein expression after vasopressin exposure, patients with ASD lower than patients without ASD [1, 6]: about 37%
- Gαs protein expression, Autism Vasopressin [1, 7]: 0.16 and 0.03 (2×) and 0.04 and 0.01 and 0.14 and 0 and 0.33 (2×) and 0.69 and 0.83 and 0.86 and 0.52 and 0.7
- Gαs protein expression, Control Vasopressin [1, 8]: 0.3 and 0.83 and 0.35 and 1.63 and 0.33 and 0.19 and 0.48 and 0.29 and 1.26 and 0.51 and 0.62 and 0.67
- Gαs protein expression, Average, Autism Vasopressin ([1]; average of autism group): .33
- Gαs protein expression, Average, Control Vasopressin ([1]; average of control group): .54
- change of Gαs protein expression on vasopressin exposure ([1]; patients with ASD): down-regulation trend; also recorded: decreased
- change of Gαs protein expression on vasopressin exposure ([1]; patients without ASD): appeared to be higher; also recorded: up-regulating
- Gαq mRNA (% of control), Autism Vasopressin [2, 9]: 7.45 % of control and 48.7 % of control and 96.6 % of control (2×) and 171.8 % of control and 43.6 % of control and 37.48 % of control and 13.87 % of control and 12.07 % of control and 24.1 % of control and 7.99 % of control and 48.3 % of control and 90.1 % of control and 90.18 % of control and 107.8 % of control and 8.62 % of control and 1.94 % of control and 30.78 % of control
- Gαq mRNA (% of control), Control Vasopressin [2, 10]: 9.17 % of control and 3.36 % of control and 54.5 % of control and 23.7 % of control and 1.04 % of control and 12.94 % of control and 1.11 % of control and 100.5 % of control and 59.8 % of control and 146.7 % of control and 45.1 % of control and 16.42 % of control and 24.87 % of control and 26.4 % of control
- Gαq mRNA (% of control), Average, Autism Vasopressin [2, 11]: 52.11 % of control
- Gαq mRNA (% of control), Average, Control Vasopressin [2, 12]: 37.5 % of control
- change of Gαq mRNA on vasopressin exposure ([2]; healthy patients): increased
- Gαs mRNA (% of control), Autism Vasopressin [3, 9]: 59.5 % of control and 151.6 % of control and 373.2 % of control and 65.9 % of control and 181.8 % of control and 66.3 % of control and 52.6 % of control and 77 % of control and 62 % of control and 54 % of control and 21.1 % of control and 114.8 % of control and 144.4 % of control and 67.6 % of control and 99.7 % of control and 147.3 % of control and 78.5 % of control and 43.7 % of control and 214.4 % of control
- Gαs mRNA (% of control), Control Vasopressin [3, 10]: 200 % of control and 245.8 % of control and 137.6 % of control and 66.3 % of control and 42.7 % of control and 58.3 % of control and 120 % of control and 31.9 % of control and 33.1 % of control and 66.1 % of control and 30.8 % of control
- Gαs mRNA (% of control), Average, Autism Vasopressin [3, 11]: 109.1 % of control
- Gαs mRNA (% of control), Average, Control Vasopressin [3, 12]: 93.9 % of control
- change of Gαs mRNA on vasopressin exposure ([3]; healthy patients): increased
- Gαq protein expression after vasopressin exposure, patients with ASD less than patients without ASD [4, 6]: about 28%
- Gαq protein expression, Autism Vasopressin [4, 7]: 4.17 and 12.58 and 0 (5×) and 9.53 and 0.36 and 1.26 and 4.64 and 4.01 and 0.19 and 1.13
- Gαq protein expression, Control Vasopressin [4, 8]: 7.84 and 0.25 and 0.6 and 0 and 10.56 and 0.26 and 1.86 and 3.96 and 0.35 and 2.86 and 2.81 and 13.29
- Gαq protein expression, Average, Autism Vasopressin ([4]; average of autism group): 2.71
- Gαq protein expression, Average, Control Vasopressin ([4]; average of control group): 3.72
- change of Gαq protein expression on vasopressin exposure ([4]; patients with ASD): down-regulation trend; also recorded: decreased
- change of Gαq protein expression on vasopressin exposure ([4]; patients without ASD): appeared to be higher; also recorded: up-regulating

SMILES: O=C(CCCN1CCC(O)(c2ccc(Cl)cc2)CC1)c1ccc(F)cc1 [haldol]
- Gαs levels in PBMCs under treatment [5]: decrease
